From US20130101666A1, “LIPOSOME INCLUDING ELASTIN-LIKE POLYPEPTIDE CONJUGATED TO MOIETY CONTAINING HYDROPHOBIC GROUP, CHEMOSENSITIZER AND ANTICANCER AGENT AND USE THEREOF” (SAMSUNG ELECTRONICS CO., LTD., priority 2011, published 2013)

Legend:
[1] = Amounts of drugs entrapped in liposomes by loading method (HPLC); assay type: physicochemical
Experimental: Two types of drugs, i.e., doxorubicin and verapamil, were loaded in the liposome. The loading process was performed using an ammonium sulfate gradient method (J. Control. Release 2009, 139, 73-80) or a pH-gradient method (Biochimica et Biophysica Acta 1985, 816, 294-302). In the loading process by the ammonium sulfate gradient method, a drug was added to the liposome solution formed of liposomes with 250 mM or 150 mM of ammonium sulfate inside and 25 mM of Tris-HCl buffer outside. The loading process was performed at a temperature of 37° C. for 60 minutes. In the loading process by the pH-gradient method, a drug was added to the liposome solution formed of liposomes with 300 mM of citrate buffer (pH 4.0) inside and 20 mM of HEPES buffer (150 mM NaCl, pH 7.4) outside. The loading process was performed at a temperature of 37° C. for 60 minutes.
The prepared liposome solution was passed through PD-10 (GE Healthcare) desalting column by flowing physiological saline therethrough to remove unentrapped drug.
Doxorubicin and verapamil entrapped in the liposomes were analyzed by high performance liquid chromatography (HPLC).
The liposomes co-encapsulating certain amounts of doxorubicin and verapamil were diluted and dissolved in dimethylsulfoxide (DMSO) and then introduced into a HPLC column. The analysis by HPLC was performed by eluting the drugs using KH2PO4/MeCN as an eluent and measuring absorbance thereof at 280 nm.
In the loading process, initial concentrations of doxorubicin and verapamil were 500 μg and 250 μg, respectively, based on 1 mL of the liposome solution.

[2] = tested on: NCI/ADR-RES cells; test: Viability of NCI/ADR-RES cells cultured in the presence of doxorubicin (WST assay); assay type: cell-based; conditions: Homo sapiens, 20 ug/mL doxorubicin, 37° C. for 2 hours, fresh media, 2 days, FIG. 1, read-out: NCI/ADR-RES cells survived (viability)
Experimental: Tumor cells having a resistance against doxorubicin, i.e., NCI/ADR-RES cells, were cultured in the presence of doxorubicin and the viability of the cells was evaluated. NCI/ADR-RES cells are tumor cells derived from OVCAR-8.
NCI/ADR-RES cells were incubated in minimum essential media (MEM) containing various concentrations of doxorubicin (0.1, 0.5, 1.0, 2.5, 5.0, 10 or 20 ug/mL), 10 volume % fetal bovine serum (FBS), and 1 wt % penicillin-streptomycin (PS) at 37° C. for 2 hours. After the MEM was replaced with fresh media, the cells were incubated at 37° C. for 2 days. The viability of the cells was evaluated by water soluble tetrazolium (WST) assay. FIG. 1 is a graph showing the viability of NCI/ADR-RES cells when being cultured in the presence of doxorubicin.

[3] = tested on: NCI/ADR-RES cells; test: cells; conditions: Homo sapiens, 10 min, read-out: cell viability
Experimental: (§1) In addition, cytotoxicity of the liposome with doxorubicin and verapamil entrapped therein against NCI/ADR-RES cells was confirmed. […] 50% based on the weight of doxorubicin of verapamil, was contained in the liposome. […] In this experiment, NCI/ADR-RES cells were incubated in each of a MEM containing free doxorubicin and a MEM containing the liposome with doxorubicin and verapamil entrapped therein, 10 volume % FBS, and 1 wt % PS at 37° C. for 48 hours. In particular, NCI/ADR-RES cells (5.0×10^4 cells) were cultured in MEM containing 10% (v/v) FBS and 1% penicillin/streptomycin in a well of the 24-well plate for 48 hours. The cultured NCI/ADR-RES cells were treated with the liposomes containing doxorubicin and verapamil at a variety of concentrations, immediately placed in a thermoshaker, and then incubated at 37° C. for 10 minutes. […] Thereafter, the NCI/ADR-RES cells were cultured at 37° C. for 48 hours, and the viability of the NCI/ADR-RES cells was measured using CCK-8 assay kit (Dojindo) by WST (water soluble tetrazolium) assay.
(§2) NCI/ADR-RES cells (5.0×10^4 cells) were cultured in MEM containing 10% (v/v) FBS and 1% penicillin/streptomycin in a well of the 24-well plate for 48 hours. […] Thereafter, the NCI/ADR-RES cells were cultured at 37° C. for 46 hours, and the viability of the NCI/ADR-RES cells was measured using CCK-8 assay kit (Dojindo) by WST assay. […]

[4] = tested on: NCI/ADR-RES cells; conditions: 45° C. for 10 minutes; 10 ug doxorubicin/mL (liposome: +5 ug verapamil/mL); FIG. 7A/7B
Experimental: as §1, §2

[5] = ammonium sulfate gradient method, 150 mM ammonium sulfate (inside), 25 mM Tris HCl buffer (outside), initial doxorubicin 500 μg, verapamil 250 μg per 1 mL

Row | SMILES | amount of entrapped verapamil [1, 5] | viability at 20 µg/mL [2] | viability at 20 µg/mL [3] | cell viability [4] | amount of entrapped doxorubicin [1, 5] | amount of entrapped doxorubicin ([1]; ammonium sulfate gradient method, 250 mM ammonium sulfate (inside), 25 mM Tris HCl buffer (outside), initial doxorubicin 500 μg, verapamil 250 μg per 1 mL) | amount of entrapped doxorubicin ([1]; pH-gradient method, 300 mM citrate buffer (pH 4.0) (inside), 20 mM HEPES buffer (150 mM NaCl, pH 7.4) (outside))
1 | COc1ccc(CCN(C)CCCC(C#N)(c2ccc(OC)c(OC)c2)C(C)C)cc1OC (racemic) [Verapamil, (RS)-2-(3,4-dimethoxyphenyl)-5-{[2-(3,4-dimethoxyphenyl)ethyl]-(methyl)amino}-2-prop-2-ylpentanenitrile] | 1.4 µg/mL | – | – | – | – | – | –
2 | COc1cccc2c1C(=O)c1c(O)c3c(c(O)c1C2=O)C[C@@](O)(C(=O)CO)C[C@@H]3O[C@H]1C[C@H](N)[C@H](O)[C@H](C)O1 [Doxorubicin, doxorubicin] | – | > 70% | 50% | about 70% | 36.5 µg/mL | 404 µg/mL | 42 µg/mL
